Data: PMC5432998, “Recombinant expression of thermostable processive MtEG5 endoglucanase and its synergism with MtLPMO from Myceliophthora thermophila during the hydrolysis of lignocellulosic substrates” (Biotechnology for Biofuels, 2017)

Biological target: T1, MtEG5A (Thermothelomyces thermophilus, UniProt G2Q5D8)
T1 construct: gene MYCTH_86753; mature GH5 with CBM1; ORF 389 aa, signal peptide removed (printed MKSSILASVFATGAVA); C-terminal myc/His tag; Pichia pastoris X33
T1 sequence (G2Q5D8 17-389): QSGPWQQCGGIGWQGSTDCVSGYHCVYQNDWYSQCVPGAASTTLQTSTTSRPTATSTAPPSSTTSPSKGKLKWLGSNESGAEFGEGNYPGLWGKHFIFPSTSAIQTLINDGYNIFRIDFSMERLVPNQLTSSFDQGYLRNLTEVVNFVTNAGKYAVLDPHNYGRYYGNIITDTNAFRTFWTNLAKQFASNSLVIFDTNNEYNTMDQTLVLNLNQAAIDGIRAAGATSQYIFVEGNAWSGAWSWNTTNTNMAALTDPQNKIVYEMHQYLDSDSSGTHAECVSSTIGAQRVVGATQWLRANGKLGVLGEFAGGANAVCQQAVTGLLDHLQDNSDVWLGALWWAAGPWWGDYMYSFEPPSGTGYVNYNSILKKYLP
Assay: HPAEC-PAD hydrolysis time course
Assay type: biochemical
Settings: 40 uM substrate; citrate-phosphate pH 5.0; 50 °C

SMILES	HPAEC-PAD hydrolysis time course
OC[C@H]1O[C@@H](O[C@H]2[C@H](O)[C@@H](O)[C@H](O[C@H]3[C@H](O)[C@@H](O)[C@H](O[C@H]4[C@H](O)[C@@H](O)[C@H](O[C@H]5[C@H](O)[C@@H](O)[C@H](O[C@H]6[C@H](O)[C@@H](O)C(O)O[C@@H]6CO)O[C@@H]5CO)O[C@@H]4CO)O[C@@H]3CO)O[C@@H]2CO)[C@H](O)[C@@H](O)[C@@H]1O (some centres unmarked) [G6, cellohexaose]	The comparison of catalytic efficiency (k cat /K m) values of MtEG5A against the oligosaccharides
OC[C@H]1O[C@@H](O[C@H]2[C@H](O)[C@@H](O)[C@H](O[C@H]3[C@H](O)[C@@H](O)[C@H](O[C@H]4[C@H](O)[C@@H](O)[C@H](O[C@H]5[C@H](O)[C@@H](O)C(O)O[C@@H]5CO)O[C@@H]4CO)O[C@@H]3CO)O[C@@H]2CO)[C@H](O)[C@@H](O)[C@@H]1O (some centres unmarked) [G5, cellopentaose]	the enzyme catalyzed the hydrolysis of G5, the products were G2 and G3
